In patent EP0645397B1, “Glutathione analogs and paralog panels comprising glutathione mimics” (TERRAPIN TECHNOLOGIES, INC., priority 1993, dated 1998):

How the values were obtained:
[1] = tested on: rat liver cytosolic GST isoenzymes; experiment: Affinity chromatography of rat liver cytosol on GSH and GSH analog sorbents; recovery of protein and CDNB-conjugating activity in elution fractions; type: binding
Description: 0.66 g epoxy Sepharose™ 6B (Pharmacia) was swollen with 10 mL water for 15 min, then rinsed twice with 10 mL water in a 15 mL sintered glass funnel. A solution of 100-500 mg of the crude tripeptide in 5 mL ethanol and 10 mL water was adjusted to pH 11-12 with 6 N NaOH in a 20 mL scintillation vial with a polycone cap. The rinsed resin was added, and gently agitated overnight in a 37° water bath. The pH was checked the next day and brought back to pH 11-12 with 6 N NaOH if needed. After another day of agitation, the resin was filtered (the peptide-containing liquid was acidified with conc HCl, evaporated and saved) and rinsed three times with 10 mL water. The unfunctionalized epoxy groups were capped by soaking the resin in 10 mL of water which contained about 0.1 mL ethanolamine for 1 hr. The resin was then rinsed three times with 10 mL water, and a sample was removed for analysis. The remainder was rinsed with 10 mL of 0.1 M NaOAc, 0.5 M NaCl pH 4.0 buffer, followed by 10 mL of 0.1 M tris chloride, 0.5 M NaCl pH 8.0 buffer. The resin was stored at 4°C in this pH 8 buffer.
The recoveries of protein and GST (CDNB-conjugating) activity in the elution fractions after affinity purification of rat liver cytosolic GST isoenzymes on various compounds of the invention are shown in Table 3.

glyoxalase I = experiment: SDS/PAGE detection of glyoxalase I-like protein in sorbent eluates; type: binding, rat; conditions: EDTA in buffers
Text: A protein with a molecular migration similar to that of another GSH-dependent enzyme, glyoxalase I, was also present in the eluates from γE-C(Bz)-A and γE-C(Bz)-βA, but was not detected in eluates from the other sorbents. […] Glyoxalase I is known to be a metal-dependent enzyme, and the presence of EDTA in the buffers may have interfered with binding activity.

[2] = tested on: rat cytosolic GST isoenzymes; experiment: Isoenzyme composition of sorbent eluates by SDS/PAGE and reverse-phase HPLC; type: binding
Description: Fractions eluted from the sorbents listed in Table 3 were analyzed by SDS/PAGE followed by silver staining. S-L-GSH and HxGSH sorbents bound proteins which corresponded to the previously observed electrophoretic band pattern of rat liver GST subunits. […] As the π-class GST 7-7 is found at low levels in rat liver cytosol, other rat tissues known to express higher levels of this isoenzyme also were tested.
Independent confirmation of this conclusion, at higher resolution, was provided by reverse-phase HPLC analyses of the GST isoenzymes in the eluates from different sorbents. […] Subunits 3, 4 and 6 are µ-class isoenzymes, subunits 1a, 1b, 2 and 8 are α-class isoenzymes, and subunit 7 is the π-class isoenzyme.

Protein recovery ([1]; Table 4, rat cytosolic GST isoenzymes): 1.0%
protein recovery seen with HxGSH ([1]; relative to HxGSH sorbent): 33%
CDNB-conjugating activities ([1]; relative to HxGSH sorbent, after correcting for the inhibitory properties of the eluting ligand): 52%
protein with a molecular migration similar to glyoxalase I in eluate (glyoxalase I): present
SMILES: N[C@@H](CCC(=O)N[C@@H](CSCc1ccccc1)C(=O)NCCC(=O)O)C(=O)O [γE-C(Bz)-βA, γ-glutamyl S-benzyl cysteinyl β-alanine]
SDS/PAGE band pattern of eluate ([2]; rat liver cytosol, silver staining): highly enriched band for presumptive µ-class isoenzymes
isoenzymes bound ([2]; reverse-phase HPLC of eluates): selectively bound the µ-class isoenzymes 3 and 4
